Three compounds from patent US10716771B2, “Pharmaceutical composition for preventing or treating immune diseases or inflammatory diseases, containing biguanide derivative compound as active ingredient” (THE CATHOLIC UNIVERSITY OF KOREA INDUSTRY-ACADEMIC …, priority 2013, dated 2020) can be followed below.

The subject of one series is Foxp3+ Treg cells. The experiment in a line: Regulatory T cell (Treg) expression by flow cytometry, Example 8-3. To be noted: anti-CD4, anti-CD25, anti Foxp3. It is filed as cell-based, mouse. The protocol:
In order to evaluate an arthritis therapeutic effect of the biguanide derivative compound of the present invention, in a rheumatoid arthritis animal model, cytotoxicity, generation of autoantibody, expression of inflammatory cytokines and regulatory T cells (Treg), and osteoclast differentiation were measured. Like Examples, metformin was used as a control group. Further, in order to examine whether the biguanide derivative compound of the present invention activates the expression of regulatory T cells (Treg), the incubated cells were flow-cytometry by using anti-CD4-percp, anti-CD25-APC, and anti Foxp3-Pe fluorescent antibodies (ab), and as a result, it was verified that SD-196, 216 and 217 activated the Foxp3+ Treg cells (see FIG. 10).
A general note: A flow cytometer gives signals particle by particle.

Series [1] has as its system IL-17. The experiment in a line: IL-17 expression in rheumatoid arthritis disease model with metabolic syndrome. Type of series: cell-based. The protocol:
(§1) In order to evaluate an effect of suppressing the expression of the inflammatory cytokine of the biguanide derivative compound of the present invention, the incubated supernatant was collected and the expression degrees of IL-17 and TNF-α of a mouse were examined by using a sandwich ELISA. […] of a monoclonal anti-IL-17 or anti-TNF-α was reacted in a 96-well plate at 4° C. overnight and then a non-specific binding was blocked by a blocking solution (1% BSA/PBST) after the reaction. An IL-17 or TNF-α recombinant was continuously diluted by 1/2 to be used as a standard, added with the cell-incubated supernatant, and reacted at room temperature for 2 hrs. Thereafter, biotinylated anti-IL-17 or anti-TNF-α was added and reacted at room temperature for 2 hrs, washed four times after the reaction, diluted with a diluted ExtraAvidin-alkaline phosphatase conjugate, and reacted at room temperature for 2 hrs. After the reaction, a PNPP/DEA was added and colored, and absorbance was measured at a wavelength of 405 nm.
(§2) Further, the incubated cells were analyzed by flow cytometry using anti-CD4-percp and anti-IL-17-Pe fluorescent antibodies, and as a result, it was verified that SD-196, 216 and 217 suppressed the activity of Th17 and simultaneously activated the expression of the regulatory T cells (Treg) (see FIG. 13).

Series [2] concerns IL-17. The experiment in a line: IL-17 expression in lupus animal model. It is filed as cell-based. The protocol:
as §1
(§3) In order to evaluate a lupus therapeutic effect of the biguanide derivative compound of the present invention, in a lupus animal model, cytotoxicity, autoantibody generation, generation of inflammatory cytokines, and Th17 regulation were measured by the same method as Example 8.

Series [3] deals with TNF-α. The series is described as follows: TNF-α expression in lupus animal model. Type of series: cell-based. The protocol:
as §1, §3

The test system of another series is Th17. The series is described as follows: Th17 activity in lupus animal model. It is filed as cell-based. The protocol:
as §2, §3

Series [4] deals with TNF-α. The experiment in a line: TNF-α generation in LPS-treated mouse spleen cells, ELISA. Type of series: cell-based. To be noted: 2, 20, 200 μM with LPS 100 ng/ml, 3 days; compared with only LPS. The protocol:
Spleen cells were obtained from a normal mouse of C57BL/6 (Orient Company, Korea). That is, the tissue of the spleen extracted from the mouse was finely grinded by using a teasing slide and then erythrocytes in the spleen were removed by an erythrocyte hemolysis solution. Thereafter, a PBS buffer solution was added, centrifuged, and washed to obtain spleen cells.
Since it is known that Metformin used as the diabetes therapeutic agent currently on the market has a slight effect of blocking TNF-α as the inflammatory cytokine, in order to verify whether the biguanide derivative compound of the present invention has activity of reducing the generation of TNF-α, the expression degree of TNF-α was measured by an ELISA assay. […]
In order to measure an amount of the generated TNF-α cytokine, a supernatant of the incubated cells was collected and the TNF-α generation degree was examined by using an ELISA. […] Thereafter, a PNPP/DEA solution was added and colored, and then the absorbance was measured at a wavelength of 405 nm.
A general note: ELISA stands for enzyme-linked immunosorbent assay.

The subject of the next series is normal cells. The series is described as follows: Cytotoxicity (MTT) in normal (human) cells. It is filed as cell-based. The protocol: In order to examine cytotoxicity of the biguanide derivative compound of the present invention, an MTT assay was performed. Cells were isolated from the spleen in a normal mouse group and the isolated cells were incubated for 3 days in the concentration of 0.5 μg/ml of anti-CD3 or 100 ng/ml of LPS 100, and metformin, SD-196, SD-216 or SD-217 was treated for each concentration and incubated for 3 days. […] In order to evaluate a development possibility of the biguanide derivative compound of the present invention as an agent for preventing or treating immune diseases, effects of modulating cytotoxicity and generation of inflammatory cytokines by targeting normal cells were measured by the same method as Example 8.

For series [5], the system named is TNF-α. The experiment in a line: TNF-α expression in normal (human) cells. Type of series: cell-based. To be noted: compared with metformin. The protocol: as §1
In order to evaluate a development possibility of the biguanide derivative compound of the present invention as an agent for preventing or treating immune diseases, effects of modulating cytotoxicity and generation of inflammatory cytokines by targeting normal cells were measured by the same method as Example 8.

As to `CC(C)NC(=N)NC(=N)N` [SD-000196, 1-isopropylbiguanide], the “Foxp3+ Treg cells” value with Foxp3+ Treg cells is listed as “activated”. Besides, the “expression of IL-17” value in the series on IL-17 [1] and in the series with IL-17 [2] was “suppressed” each time. For the same compound, the “expression of TNF-α” value in the series with TNF-α [3] is “suppressed”. The “activity of Th17” value with Th17 is listed as “suppressed”.
As to `NC(N)=N/C(N)=N/c1cccc(F)c1` [SD-000216, 1-(3-fluorophenyl)biguanide], in the series on TNF-α [4], the “generated amount of TNF-α” value is listed as “very significantly reduced”. Also, the “Foxp3+ Treg cells” value with Foxp3+ Treg cells is “activated”. In addition, the “expression of IL-17” value in the series on IL-17 [1] and with IL-17 [2] was “suppressed” throughout. Moreover, the “expression of TNF-α” value with TNF-α [3] and in the series on TNF-α [5] was “suppressed” throughout. Further, the “activity of Th17” value in the series on Th17 is recorded as “suppressed”. In addition, the cytotoxicity entry in the series with normal cells was “no cytotoxicity”.
`N=C(N)NC(=N)Nc1ccc(F)cc1F` [SD-000217, 1-(2,4-difluorophenyl)biguanide]: in the series with TNF-α [4], the “generated amount of TNF-α” value is recorded as “very significantly reduced”. For the same compound, the “Foxp3+ Treg cells” value with Foxp3+ Treg cells is given as “activated”. Moreover, the “expression of IL-17” value in the series with IL-17 [1] and in the series with IL-17 [2] was “suppressed” in each case. For the same compound, the “expression of TNF-α” value in the series on TNF-α [3] and in the series with TNF-α [5] was “suppressed” each time. The “activity of Th17” value with Th17 is recorded as “suppressed”. The cytotoxicity entry in the series with normal cells is given as “no cytotoxicity”.
